Literature values as cited in patent US20030195350A1, “Individualization of therapy with antiviral agents” (priority 2001, published 2003).
Where two headings read alike, the source gives them in different places.

Assays:
[1] = in vivo; cited from earlier work
[2] = system: HIV-1; details: cited from earlier work
[3] = cited from earlier work; for AUC (mean±SD): single 600 mg dose, non-fasting
[4] = in vivo; cited from earlier work; remark: listed apart in the source
[5] = system: HIV; details: cited from earlier work
[6] = system: HIV isolates; details: one ZDV-resistant HIV isolate in vitro; cited from earlier work

CC(C)c1nc(CN(C)C(=O)N[C@H](C(=O)N[C@@H](Cc2ccccc2)C[C@H](O)[C@H](Cc2ccccc2)NC(=O)OCc2cncs2)C(C)C)cs1 (relative stereo) [ritonavir, 10-Hydroxy-2-methyl-5-(1-methylethyl)-1-[2-(1-methylethyl)-4-thiazolyl]-3,6-dioxo-8,11-bis(phenylmethyl)-2,4,7,12-tetraazatridecan-13-oic acid, 5-thiazolylmethyl ester, [5S-(5R*,8R*,10R*,11R*)]]
Adverse event: Depression [1]: 1.7% | Adverse event: Diarrhea [1]: 15.4% | Adverse event: Fecal Incontinence [1]: 0.0% | Adverse event: Vasodilation [1]: 1.7% | effect against HIV-1 in combination ([2]; MT 4 cells, with either zidovudine (ZDV) or didanosine (ddI)): additive effects | EC50 ([2]; read-out: average EC50, low passage clinical isolates (n=13)): 22 nM | steady-state oral clearance (CL/F/m^2), pediatric vs adult ([3]; HIV-infected individuals ages 2 to 14 years): approximately 1.5 times | dose excreted in the feces ([3]; in vivo, po): 86.4±2.9 % of the dose | dose excreted in the feces as unchanged parent drug ([3]; in vivo, po): 33.8±10.8 % of the dose | dose excreted into the urine ([3]; in vivo, po): 11.3±2.8 % of the dose | dose excreted into the urine as unchanged parent drug ([3]; in vivo, po): 3.5±1.8 % of the dose | effect of dilution of oral solution on extent and rate of absorption ([3]; in vivo, po): did not significantly affect | renal clearance ([3]; in vivo): negligible | AUC (mean±SD) ([3]; oral solution (n=18)): 129.0 ± 39.3 µg·h/mL | AUC (mean±SD) ([3]; soft gelatin capsule (n=57)): 121.7 ± 53.8 µg·h/mL | Adverse event: Depression [4]: 1.7% | Adverse event: Fecal Incontinence [4]: 0.0% | Adverse event: Vasodilation [4]: 1.7% | cumulative incidence of clinical disease progression or death ([5]; double-blind phase of Study 247, 600 mg b.i.d.): 26% | cumulative mortality ([5]; through end of open-label follow-up phase, Study 247): 18% | susceptibility of ZDV-resistant HIV isolate [6]: retained full susceptibility
